Measurements: patent publication US20060252807A1, “Novel ortho-terphenyl inhibitors of p38 kinase and methods of treating inflammatory disorders” (Kalypsys, Inc., priority 2005, published 2006)

Target: T1, active p38 alpha enzyme (Upstate Biotechnology) (Homo sapiens, UniProt Q16539)
T1 construct: purchased Upstate Biotechnology
Assay: p38α biochemical assay (ATP turnover, luminescent detection, Cambrex PKlight)
Details: p38α biochemical assay, Table 1 Biological Activity
Method in brief: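 Luminescent ATP-depletion readout measures total ATP turnover by p38α phosphorylating whole MapkapK2 protein. ATP 1.4 uM final; 30C, 2 h. Compounds delivered from DMSO.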

T1 sequence (Q16539 whole entry): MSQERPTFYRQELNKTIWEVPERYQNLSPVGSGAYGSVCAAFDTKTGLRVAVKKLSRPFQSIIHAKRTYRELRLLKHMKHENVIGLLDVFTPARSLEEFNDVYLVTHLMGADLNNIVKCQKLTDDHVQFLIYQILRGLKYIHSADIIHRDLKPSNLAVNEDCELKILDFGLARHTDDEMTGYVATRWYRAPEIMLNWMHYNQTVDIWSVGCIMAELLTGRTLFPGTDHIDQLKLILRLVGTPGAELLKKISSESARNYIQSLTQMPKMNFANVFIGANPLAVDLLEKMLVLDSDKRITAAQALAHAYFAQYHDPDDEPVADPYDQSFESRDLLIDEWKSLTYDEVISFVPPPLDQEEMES

SMILES	IC50 [nM]
Cc1ccc(C)c(C(=O)NCc2onc(-c3ccc(F)cc3)c2-c2nc(C(=O)NC(C)C)cs2)c1 [Example 612]	> 1000
CC(C)NC(=O)c1csc(-c2oc(CN3CCN(C(=O)c4ccc(Cl)cc4[N+](=O)[O-])CC3)nc2-c2ccc(F)cc2)n1 [Example 510]	> 1000
Cc1cc(C(=O)NCc2nc(-c3ccc(F)cc3)c(-c3nc(C(=O)NC(C)C)cs3)o2)n[nH]1 [Example 116]	≤ 1000
CC(C)NC(=O)c1csc(-c2c(-c3ccc(F)cc3)noc2CNC(=O)c2ccc(C=O)cc2)n1 [Example 608]	> 1000
CCOc1ccccc1C(=O)N1CCN(Cc2nc(-c3ccc(F)cc3)c(-c3nc(C(=O)NC(C)C)cs3)o2)CC1 [Example 416]	> 1000
CC(C)NC(=O)c1csc(-c2oc(CNC(=O)c3ccc(O)cc3O)nc2-c2ccc(F)cc2)n1 [Example 148]	≤ 1000
CC(C)NC(=O)c1csc(-c2oc(CN3CCN(C(=O)c4c(Cl)cc(Cl)cc4Cl)CC3)nc2-c2ccc(F)cc2)n1 [Example 543]	> 1000
Cc1onc(-c2ccc(Cl)cc2)c1-c1ccn(C(=O)NCC2CCCO2)n1 (centres unmarked) [Example 12, 3-|3-(4-Chloro-phenyl)-5-methyl-isoxazol-4-yl|-pyrazole-1-carboxylic acid (tetrahydro-furan-2-ylmethyl)-amide]	> 1000
Cc1onc(-c2ccc(Cl)cc2)c1-c1ccn(C(=O)NCCO)n1 [Example 5, 3-|3-(4-Chloro-phenyl)-5-methyl-isoxazol-4-yl|-pyrazole-1-carboxylic acid (2-hydroxy-ethyl)-amide]	≤ 1000
CC(C)NC(=O)c1csc(-c2oc(CN3CCN(C(=O)C=O)CC3)nc2-c2ccc(F)cc2)n1 [Example 336]	≤ 1000
CC(C)NC(=O)c1csc(-c2oc(CN3CCN(C(=O)c4cc(O)c(O)c(O)c4)CC3)nc2-c2ccc(F)cc2)n1 [Example 427]	≤ 1000
CC(C)NC(=O)c1csc(-c2oc(CN3CCN(C(=O)C4CCCCN4C(=O)OC(C)(C)C)CC3)nc2-c2ccc(F)cc2)n1 (centres unmarked) [Example 548]	> 1000
Cc1cccc(C(=O)NCc2onc(-c3ccc(F)cc3)c2-c2nc(C(=O)NC(C)C)cs2)c1 [Example 596]	> 1000
CC(C)NC(=O)c1csc(-c2oc(CNC(=O)c3ccccc3C(F)(F)F)nc2-c2ccc(F)cc2)n1 [Example 249]	≤ 1000
Cc1cccc(CCC(=O)NCc2nc(-c3ccc(F)cc3)c(-c3nc(C(=O)NC(C)C)cs3)o2)c1 [Example 173]	> 1000
CC(C)NC(=O)c1csc(-c2c(-c3ccc(F)cc3)noc2CNC(=O)CNC(=O)OC(C)(C)C)n1 [Example 676]	> 1000
CC(C)NC(=O)c1csc(-c2c(-c3ccc(F)cc3)noc2CNC(=O)c2ccccc2Cc2ccccc2)n1 [Example 762]	> 1000
Cc1ccc(C(=O)CCC(=O)NCc2nc(-c3ccc(F)cc3)c(-c3nc(C(=O)NC(C)C)cs3)o2)cc1 [Example 256]	> 1000
CC(C)NC(=O)c1csc(-c2c(-c3ccc(F)cc3)noc2CNC(=O)c2ccccc2C(F)(F)F)n1 [Example 724]	> 1000
CC(C)NC(=O)c1csc(-c2c(-c3ccc(F)cc3)noc2CNC(=O)c2cccnc2Cl)n1 [Example 628]	> 1000
CC(C)NC(=O)c1csc(-c2c(-c3ccc(F)cc3)noc2CNC(=O)c2ccc(Cl)c(Br)c2)n1 [Example 796]	> 1000
COc1ccc2cc(C(C)C(=O)NCc3nc(-c4ccc(F)cc4)c(-c4nc(C(=O)NC(C)C)cs4)o3)ccc2c1 (centres unmarked) [Example 313]	≤ 1000
CC(C)NC(=O)c1csc(-c2oc(CNC(=O)c3cnc(O)c(Cl)c3)nc2-c2ccc(F)cc2)n1 [Example 198]	≤ 1000

Same assay, conditions: p38α kinase; Table 1 Biological Activity

SMILES	IC50 [nM]
CC(C)NC(=O)c1csc(-c2c(-c3ccc(F)cc3)noc2CNCCc2ccc3c(c2)OCO3)n1 [Example 1505]	> 1000
Cc1nc(-c2ccc(F)cc2)c(-c2nc(C(=O)N(C)CCO)cs2)s1 [Example 1839]	> 1000
CC(C)NC(=O)c1csc(-c2oc(CNC3CCC3)nc2-c2ccc(F)cc2)n1 [Example 1059]	> 1000
Cc1nc(-c2ccc(F)cc2)c(-c2nc(C(=O)NCC(C)c3ccccc3)cs2)s1 (centres unmarked) [Example 1773]	> 1000
CCN(CCCCO)Cc1nc(-c2ccc(F)cc2)c(-c2nc(C(=O)NC(C)C)cs2)o1 [Example 1215]	> 1000
CC(C)NC(=O)c1csc(-c2c(-c3ccc(F)cc3)noc2CN(C)C(Cc2ccccc2)c2ccccc2)n1 (centres unmarked) [Example 1614]	> 1000
O=C(NC1CC1)c1csc(-c2c(-c3ccc(F)cc3)n[nH]c2C2CCNCC2)n1 [Example 2033]	≤ 1000
N#CCCNC(=O)c1csc(-c2c(-c3ccc(F)cc3)n[nH]c2C2CCNCC2)n1 [Example 2037]	> 1000
CC(C)NC(=O)c1csc(-c2c(-c3ccc(F)cc3)noc2CN2CCN(c3ccc([N+](=O)[O-])cc3)CC2)n1 [Example 1608]	> 1000
CC(C)CCNCc1onc(-c2ccc(F)cc2)c1-c1nc(C(=O)NC(C)C)cs1 [Example 1401]	> 1000
Cc1cccc(NCc2onc(-c3ccc(F)cc3)c2-c2nc(C(=O)NC(C)C)cs2)c1C [Example 1644]	> 1000
CC(C)NC(=O)c1csc(-c2oc(CNCCc3ccccc3F)nc2-c2ccc(F)cc2)n1 [Example 1128]	> 1000
CC(C)NC(=O)c1csc(-c2c(-c3ccc(F)cc3)n[nH]c2C2CCN(C(=O)C3CN(C(=O)OC(C)(C)C)CCN3)CC2)n1 (centres unmarked) [Example 1029]	≤ 1000
Cc1nc(-c2ccc(F)cc2)c(-c2nc(C(=O)NC3CCc4ccccc43)cs2)s1 (centres unmarked) [Example 1767]	> 1000
CC(C)NC(=O)c1csc(-c2oc(CNC3CC(C)(C)NC(C)(C)C3)nc2-c2ccc(F)cc2)n1 [Example 1152]	> 1000
CCN(CC)CCN(Cc1ccccc1)Cc1onc(-c2ccc(F)cc2)c1-c1nc(C(=O)NC(C)C)cs1 [Example 1607]	> 1000
CC(=O)Nc1ccc(NCc2nc(-c3ccc(F)cc3)c(-c3nc(C(=O)NC(C)C)cs3)o2)cc1 [Example 1351]	> 1000
CC(=O)C(=O)N1CCC(c2[nH]nc(-c3ccc(F)cc3)c2-c2nc(C(=O)NC(C)C)cs2)CC1 [Example 2176, 2-{3-(4-Fluoro-phenyl)-5-|1-(2-oxo-propionyl)-piperidin-4-yl|-1H-pyrazol-4-yl}-thiazole-4-carboxylic acid isopropylamide]	≤ 1000
CN(C)c1ccc(CNC(=O)c2csc(-c3c(-c4ccc(F)cc4)n[nH]c3C3CCNCC3)n2)cc1 [Example 2149]	> 1000
COc1cccc(CCNC(=O)c2csc(-c3sc(C)nc3-c3ccc(F)cc3)n2)c1 [Example 1797]	≤ 1000
Cc1nc(-c2ccc(F)cc2)c(-c2nc(C(=O)NC3CCCCCC3)cs2)s1 [Example 1746]	≤ 1000
Cc1ccc(NCc2nc(-c3ccc(F)cc3)c(-c3nc(C(=O)NC(C)C)cs3)o2)cc1F [Example 1328]	> 1000
CC(C)NC(=O)c1csc(-c2c(-c3ccc(F)cc3)n[nH]c2C2CCN(C(=O)c3ccc(Cl)cc3Cl)CC2)n1 [Example 966]	> 1000

SMILES	IC50 [nM]
CC(C)NC(=O)c1csc(-c2c(-c3ccc(F)cc3)n[nH]c2C2CCN(C(=O)/C=C/c3ccccc3Cl)CC2)n1 [Example 945]	> 1000
CCCCN(CC)C(=O)c1csc(-c2sc(C)nc2-c2ccc(F)cc2)n1 [Example 1852]	> 1000
Cc1nc(-c2ccc(F)cc2)c(-c2nc(C(=O)Nc3cccc(Cl)c3C)cs2)s1 [Example 1992]	≤ 1000
CC(C)NC(=O)c1csc(-c2c(-c3ccc(F)cc3)n[nH]c2C2CCN(C(=O)c3cncc(Br)c3)CC2)n1 [Example 991]	≤ 1000
Cc1nc(-c2ccc(F)cc2)c(-c2nc(C(=O)Nc3cccc(F)c3C)cs2)s1 [Example 1977]	> 1000
Cc1nc(-c2ccc(F)cc2)c(-c2nc(C(=O)N3CCN(c4ccc(C(C)(C)C)cc4)CC3)cs2)s1 [Example 1944]	> 1000
CCc1cccc(C)c1NCc1onc(-c2ccc(F)cc2)c1-c1nc(C(=O)NC(C)C)cs1 [Example 1660]	> 1000
Cc1nc(-c2ccc(F)cc2)c(-c2nc(C(=O)NCc3ccc(F)c(F)c3)cs2)s1 [Example 1790]	≤ 1000
CC(=O)N[C@H]1CCN(Cc2onc(-c3ccc(F)cc3)c2-c2nc(C(=O)NC(C)C)cs2)C1 [Example 1545]	> 1000
Cc1ccc(NCc2onc(-c3ccc(F)cc3)c2-c2nc(C(=O)NC(C)C)cs2)cc1 [Example 1632]	> 1000
COc1ccc(N2CCN(C(=O)c3csc(-c4sc(C)nc4-c4ccc(F)cc4)n3)CC2)cc1OC [Example 1953]	> 1000
CC(C)NC(=O)c1csc(-c2c(-c3ccc(F)cc3)noc2CNc2cccc(C(F)(F)F)c2)n1 [Example 1681]	> 1000
CC(C)NC(=O)c1csc(-c2c(-c3ccc(F)cc3)noc2CNCc2ccccc2OC(F)(F)F)n1 [Example 1502]	> 1000
CC(C)NC(=O)c1csc(-c2c(-c3ccc(F)cc3)noc2CNC(=O)C(Cc2ccc(O)cc2)NC(=O)OC(C)(C)C)n1 (centres unmarked) [Example 809]	> 1000
CCOc1ccc2ccccc2c1C(=O)N1CCC(c2[nH]nc(-c3ccc(F)cc3)c2-c2nc(C(=O)NC(C)C)cs2)CC1 [Example 1011]	> 1000
CC(C)NC(=O)c1csc(-c2oc(CNC3CCCC3)nc2-c2ccc(F)cc2)n1 [Example 1066]	> 1000
CC(C)NC(=O)c1csc(-c2oc(CNCC(C)c3ccccc3)nc2-c2ccc(F)cc2)n1 (centres unmarked) [Example 1117]	> 1000
CC(C)NC(=O)c1csc(-c2c(-c3ccc(F)cc3)noc2CNCCc2ccccc2)n1 [Example 1430]	> 1000
CCN(Cc1nc(-c2ccc(F)cc2)c(-c2nc(C(=O)NC(C)C)cs2)o1)C(C)C [Example 1193]	> 1000
Cc1cc(C)cc(NCc2onc(-c3ccc(F)cc3)c2-c2nc(C(=O)NC(C)C)cs2)c1 [Example 1646]	> 1000
COc1ccc(N2CCN(Cc3nc(-c4ccc(F)cc4)c(-c4nc(C(=O)NC(C)C)cs4)o3)CC2)cc1 [Example 1269]	> 1000
CC(C)NC(=O)c1csc(-c2oc(CNCCOc3ccccc3)nc2-c2ccc(F)cc2)n1 [Example 1123]	> 1000
